Experiments:
[1] = parameters: method as in PMID 30236787; settings: vs NHE; cited from earlier work
[2] = system: MCF-7 breast cancer cells; experiment: MTT cytotoxicity assay, MCF-7; settings: read-out: IC50 MCF-7, 10^4 cells, 72 h exposure
Description: (§1) Cells were grown as monolayers in 75 cm^2 culture flasks (Starlab, Hamburg, Germany) at 37 °C in a humidified atmosphere containing 5% CO2.
(§2) The cytotoxic activity of the compounds was determined by the 3-(4,5-dimethylthiazol-2-yl)-2,5-diphenyl-2H-tetrazolium bromide (MTT) assay (obtained from Acros Organics, Geel, Belgium) in at least three independent experiments. […] Furthermore, 1 × 10^4 cells of Colo205, Colo320, and MCF-7 as well as MRC-5 were seeded overnight prior to the assay with 72 h exposure to the compounds tested. […] In the case of the metal complexes, we first mixed the ligand and the aqueous metal salt solution (c = 10 mM) in the appropriate ratio followed by dilution with the medium. The metal salts dissolved in the same way were also tested.
(§3) MTT assays with the cell lines Colo205, Colo320, MCF-7, and MRC-5 were performed after addition of the substances and a subsequent 72 h incubation time. At the end of the incubation period, 20 μL of the MTT solution (from a stock solution of 5 mg/mL) was added to each well. After the staining, the plates were incubated at 37 °C for 4 h, then 100 μL of SDS solution (10% in 0.01 M HCI) was added to each well, and the plates were incubated at 37 °C overnight. The optical density (OD) was determined at 540/630 nm with a Multiscan EX ELISA reader (Thermo Labsystems).
(§4) The IC50 values, i.e., the concentrations resulting in half the number of viable cells relative to untreated controls, were interpolated from concentration–effect curves of at least three independent experiments.

[3] = system: MRC-5 normal embryonal lung fibroblasts; experiment: MTT cytotoxicity assay, MRC-5; settings: read-out: IC50 MRC-5, 10^4 cells, 72 h exposure, nontumoral fibroblasts
Description: as §1, §2, §3, §4

[4] = system: A549 non-small-cell lung cancer cells; experiment: MTT cytotoxicity assay, A549; settings: read-out: IC50 A549, 3 × 10^3 cells, 96 h exposure
Description: (§5) CH1/PA-1 (provided by L.R. Kelland, CRC Centre for Cancer Therapeutics, Institute of Cancer Research, Sutton, UK; confirmed by STR profiling as PA-1 ovarian teratocarcinoma cells at Multiplexion, Heidelberg, Germany), SW480 colon carcinoma, and A549 non-small-cell lung cancer cells (both obtained from the American Type Culture Collection, Manassas, VA, USA) were maintained in a minimal essential medium (MEM) supplemented with 1 mM sodium pyruvate, 4 mM L-glutamine, 1% (v/v) nonessential amino acids from 100-fold stock (all purchased from Sigma-Aldrich), and 10% heat-inactivated fetal bovine serum (FBS; BioWest, Nuaillé, France).
as §1
(§6) The cytotoxic activity of the compounds was determined by the 3-(4,5-dimethylthiazol-2-yl)-2,5-diphenyl-2H-tetrazolium bromide (MTT) assay (obtained from Acros Organics, Geel, Belgium) in at least three independent experiments. A total of 1 × 10^3 CH1/PA-1, 2 × 10^3 SW480, and 3 × 10^3 A549 cells were seeded at 100 μL per well into 96-well microculture plates (Starlab, Hamburg, Germany) 24 h before a treatment with the test compounds for a period of 96 h. […] In the case of the metal complexes, we first mixed the ligand and the aqueous metal salt solution (c = 10 mM) in the appropriate ratio followed by dilution with the medium.
(§7) CH1/PA-1, SW480, and A549 cells were treated with 100 μL/well of the test compounds serially diluted in complete MEM. […] After 4 h incubation, the MTT-containing medium was replaced with 150 μL DMSO per well to dissolve the formazan product formed by viable cells.
as §4

[5] = system: CH1/PA-1 ovarian teratocarcinoma cells; experiment: MTT cytotoxicity assay, CH1/PA-1; settings: read-out: IC50 CH1/PA-1, 10^3 cells, 96 h exposure
Description: as §5, §1, §6, §7, §4

[6] = system: Colo320 (doxorubicin-resistant) colon adenocarcinoma cells; experiment: MTT cytotoxicity assay, Colo320; settings: read-out: IC50 Colo320, 10^4 cells, 72 h exposure
Description: as §1, §2, §3, §4

[7] = system: Colo205 colon adenocarcinoma cells; experiment: MTT cytotoxicity assay, Colo205; settings: read-out: IC50 Colo205, 10^4 cells, 72 h exposure
Description: as §1, §2, §3, §4

[8] = system: SW480 colon carcinoma cells; experiment: MTT cytotoxicity assay, SW480; settings: read-out: IC50 SW480, 2 × 10^3 cells, 96 h exposure
Description: as §5, §1, §6, §7, §4

SMILES | redox potential of the Fe(III)/Fe(II) complexes of the ligand [1] | IC50 [2] [µM] | IC50 [3] [µM] | IC50 [4] [µM] | IC50 [5] [µM] | IC50 [6] [µM] | IC50 [7] [µM] | IC50 [8] [µM]
c1cnc2c(c1)ccc1cccnc12 [1,10-phenantroline] | +1130 mV |  |  |  |  |  |  | 
c1ccc(-c2ccccn2)nc1 [2,2-bipiyridine] | +1100 mV |  |  |  |  |  |  | 
[Cl][Cu][Cl] [CuCl2] |  | > 10 | > 10 | 142 ± 16 | 28 ± 5 | > 10 | > 10 | 154 ± 21
[Cl][Fe]([Cl])[Cl] [FeCl3] |  | > 10 | > 10 | > 200 | > 200 | > 10 | > 10 | > 200
[Cl-].[Cl-].[Zn+2] [ZnCl2] |  | > 10 | > 10 | 123 ± 9 | 66 ± 3 | > 10 | > 10 | 125 ± 16
O=C(O)c1ccc(-n2nc(-c3ccccc3O)nc2-c2ccccc2O)cc1 [deferasirox] | −400 mV |  |  |  |  |  |  | 
Cc1c(O)c(=O)ccn1C [deferiprone] | −620 mV |  |  |  |  |  |  | 
CC(=O)N(O)CCCCCNC(=O)CCC(=O)N(O)CCCCCNC(=O)CCC(=O)N(O)CCCCCN [deferoxamine B] | −450 mV |  |  |  |  |  |  | 
